Reference: patent US9107964B2, “Radioactive fluorine-labeled compound” (NIHON MEDI-PHYSICS CO., LTD., priority 2011, dated 2015)

Key:
[1] = tested on: mouse-derived breast cancer cell line (EMT6) tumor-bearing model mice; test: Measurement of SUV within tumor and calculation of tumor/normal tissue ratio (Example 11); settings: 60 minutes after administration
Protocol: The tumor-bearing model mouse thus prepared was placed under isoflurane anesthesia, and about 20 MBq of these sample solutions was administered via a tail vein. static imaging was carried out using a PET system for animals (model: eXplore Vista, manufactured by GE) at 60 minutes after administration. […] Data thus collected were reconstituted by the OSEM method to thus form an image, and a coronal tomographic image and an axial tomographic image were formed using image analysis software.
The maximum value for SUV within the tumor was measured using the axial tomographic images acquired in the Example 10. For all slice planes of an axial tomographic image where the tumor was visualized, a region of interest (hereinafter, called an ROI) was set for the entire tumor and measured. The axial tomographic image was formed from 61 slice planes, and the SUV that was the highest among the measured slice planes was defined as a maximum value for SUV 60 minutes after administration (SUV maximum value in tumor). […] The average value for signal intensity within the ROI was determined, and the average value for values measured for the slice planes was defined as the average value for SUV in normal tissue. The tumor/normal tissue ratio was calculated using the following equation (1) and used as a […] indicator with respect to contrast between the tumor and normal tissue.

[2] = tested on: hypoxic region of EMT6 tumor (pimonidazole-positive site); test: Localization of accumulation within tumor by autoradiography versus pimonidazole immunohistochemical staining; format: in vivo, mouse (Balb/c nu/nu); settings: autoradiography and immunohistochemical staining of the same tumor section
Protocol: In order to evaluate whether or not the compound related to the present invention could visualize a hypoxic region of a tumor, the following experiment was carried out using compounds 1 to 3 and [^18F]FMISO.
Localization of accumulation of each of the labeled compounds within a tumor was confirmed by autoradiography. After PET imaging of a tumor-bearing model mouse prepared by the method of […] was completed, it was sacrificed by blood-letting by cardiocentesis, immediately thereafter the tumor was sampled, and tissue sections (thickness: 10 μm) were prepared using a cryostat (model: CM3050, manufactured by Leica). […] After exposing an imaging plate to this tumor tissue section for 8 to 10 hours, an image was captured using a bioimaging analyzer (model: BAS-2500, manufactured by FUJIFILM). The image thus captured was subjected to image analysis using image analysis software.
Separately, as a method for confirming a hypoxic region within a tumor, the same section after decay of radioactivity was subjected to immunohistochemical staining using pimonidazole that is a hypoxic marker, by the following procedure. […]

[3] = tested on: hypoxic region of EMT6 tumor (pimonidazole-positive area); test: Correlation between autoradiographic signal intensity (PSL value) and pimonidazole-positive area (Example 13); format: in vivo, mouse (Balb/c nu/nu); settings: tumor tissue sections after PET imaging
Protocol: In order to evaluate whether or not the compound related to the present invention can quantitatively visualize a hypoxic region of a tumor, the following experiment was carried out using compounds 1 to 3 and [^18F]FMISO.
Using a microscope system (model: BZ-9000, Keyence Corporation) a high magnification image of a pimonidazole-positive site was acquired using the entire image of a pathology image obtained by immunohistochemical staining in the Example 12 and a 10× objective lens. The high magnification image was formed with respect to a randomly selected image region. At the same time the image acquisition site was recorded as a navigation image by use of the navigation function of the microscope system. The acquired high magnification image was subjected to image processing, and a pimonidazole-positive area present in the high magnification image was determined.
The autoradiographic image and the stained image of each labeled compound used were those acquired in the Example 12. The resolution of the navigation image was made to match the resolution of the autoradiographic image, and the geometrical positions of two images were aligned using image analysis software.
In the autoradiographic image, an ROI was set for the site that coincided with the high magnification image acquisition site, and the PSL value (Photo-Stimulated Luminescence value) of the ROI was determined. Furthermore, an ROI was set for a site of the same image that contained no sample, and the PSL value thereof was defined as the background. The PSL value of the background was subtracted from the PSL value of the high magnification image acquisition site to obtain the net PSL value. The hypoxic marker pimonidazole-positive area was plotted on the abscissa and the PSL value in the autoradiographic image on the ordinate, and the correlation factor was determined. This series of operations was carried out for each of the labeled compounds.

[4] = tested on: EMT6 tumor-bearing model mice; test: Biodistribution in tumor and organs of tumor-bearing mouse (Example 14); format: in vivo, mouse (Balb/c nu/nu); settings: mean
Protocol: The biodistribution of compounds 1 to 3 and [^18F]FMISO in a tumor and each of the organs of a tumor-bearing mouse was measured.
Tumor-bearing model mice used in this experiment were the same as those prepared in Example 10, and 3 or 4 cases that had attained a tumor volume of 200 to 400 mm^3 were selected from each group. The tumor-bearing model mouse was placed under isoflurane anesthesia, pimonidazole that is a hypoxic marker, was administered via a tail vein, and at 10 minutes thereafter, the respective labeled compound was administered. The tumor-bearing model mouse was sacrificed at 60 minutes and 120 minutes after administration. All of the tumor-bearing model mice were sacrificed by blood-letting from the abdominal aorta or by cardiocentesis, and dissection was carried out immediately thereafter. Other than the tumor, the blood, heart, lung, stomach, liver, gallbladder, kidney, small intestine and large intestine, muscle, and urine were sampled, and the other tissues were defined as the remaining whole body. After the weight of each tissue sampled was measured, the amount of radioactivity of the tissue was measured using a gamma counter, and the biodistribution of each of the labeled compounds was compared by converting it into % ID/g (% injection dose/g organ) of each tissue.
In order to examine a hypoxic state within the tumor, immunohistochemical staining of the sample tumor was carried out so as to ascertain whether or not the interior of the tumor was hypoxic. The sampled tumor was fixed using a 20% formalin buffer, and a paraffin block was prepared using an automatic paraffin-embedding apparatus (model: VIP-5-Jr-J0, Sakura Finetek). A slice (thickness: 3 μm) was prepared by means of a microtome (model: Tissue-Tek Feather Trustome, Sakura Finetek). Immunohistochemical staining was carried out by the same method as in Example 12.

[5] = 60 minutes after administration
[6] = 120 minutes after administration

Question: Which results are given for `O=[N+]([O-])c1nccn1CC(O)C[18F]` (centres unmarked) [[^18F]FMISO, [^18F]fluoromisonidazole, reference compound]?
Answer: SUV maximum value (in tumor) ([1]; about 20 MBq via tail vein, axial PET image, ROI entire tumor): 0.98; Tumor/normal tissue ratio ([1]; SUV maximum in tumor versus average SUV of left body side (lung and muscle)): 2.03; Coincidence of accumulation site with localization of pimonidazole (hypoxic marker) [2]: did not visually coincide; Correlation coefficient (pimonidazole-positive area vs PSL value in autoradiographic image) [3]: 0.55; Blood [4, 5]: 4.45 % ID/g; Gall bladder [4, 5]: 12.92 % ID/g; Heart [4, 5]: 5.12 % ID/g; Kidney [4, 5]: 8.52 % ID/g; Large intestine [4, 5]: 13.76 % ID/g; Liver [4, 5]: 5.84 % ID/g; Lung [4, 5]: 4.41 % ID/g; Muscle [4, 5]: 3.80 % ID/g; Small intestine [4, 5]: 5.76 % ID/g; Stomach [4, 5]: 4.17 % ID/g; T/B (tumor/blood ratio) [4, 5]: 1.06; T/M (tumor/muscle ratio) [4, 5]: 1.24; Tumor [4, 5]: 4.71 % ID/g; Urine [4, 5]: 34.98 % ID; Blood [4, 6]: 2.26 % ID/g; Gall bladder [4, 6]: 43.43 % ID/g; Heart [4, 6]: 3.33 % ID/g; Kidney [4, 6]: 3.89 % ID/g; Large intestine [4, 6]: 21.16 % ID/g; Liver [4, 6]: 3.85 % ID/g; Lung [4, 6]: 2.69 % ID/g; Muscle [4, 6]: 2.29 % ID/g; Small intestine [4, 6]: 4.63 % ID/g; Stomach [4, 6]: 1.85 % ID/g; T/B (tumor/blood ratio) [4, 6]: 1.91; T/M (tumor/muscle ratio) [4, 6]: 1.88; Tumor [4, 6]: 4.28 % ID/g; Urine [4, 6]: 41.45 % ID
